Entries after “also recorded” stand apart in the source; their conditions may differ.
Assays:
[1] = tested on: GlyT1; details: cited from earlier work
[2] = Stability in rat liver microsomes; assay type: in vitro ADME
[3] = Stability in human plasma; assay type: in vitro ADME
[4] = biological target: T1, human GlyT1b (Homo sapiens, UniProt P48067); assay type: cell-based; details: 3 μM (maximal concentration)
T1 sequence (P48067 1-652 isoform P48067-3): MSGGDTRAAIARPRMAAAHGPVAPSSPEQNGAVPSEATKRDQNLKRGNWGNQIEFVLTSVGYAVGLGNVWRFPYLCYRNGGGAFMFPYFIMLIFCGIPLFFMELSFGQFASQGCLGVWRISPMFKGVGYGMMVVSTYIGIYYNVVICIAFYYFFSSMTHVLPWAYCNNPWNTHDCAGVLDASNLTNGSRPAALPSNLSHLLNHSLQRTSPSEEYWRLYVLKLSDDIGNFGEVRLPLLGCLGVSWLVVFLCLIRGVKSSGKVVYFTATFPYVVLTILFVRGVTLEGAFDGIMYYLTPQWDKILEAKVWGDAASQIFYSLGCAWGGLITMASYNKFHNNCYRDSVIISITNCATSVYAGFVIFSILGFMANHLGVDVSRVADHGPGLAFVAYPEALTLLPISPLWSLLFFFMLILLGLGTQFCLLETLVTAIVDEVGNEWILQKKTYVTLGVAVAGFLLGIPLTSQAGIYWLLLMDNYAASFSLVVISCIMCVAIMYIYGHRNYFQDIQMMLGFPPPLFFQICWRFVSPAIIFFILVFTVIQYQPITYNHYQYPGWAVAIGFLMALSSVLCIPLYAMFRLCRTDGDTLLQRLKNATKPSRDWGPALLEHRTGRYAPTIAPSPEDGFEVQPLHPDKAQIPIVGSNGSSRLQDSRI

[5] = Stability in human liver microsomes; assay type: in vitro ADME; details: for half-life at 1 μM: human, human liver microsomes, pH 7.4
[6] = biological target: T2, GlyT2 (Homo sapiens, UniProt Q9Y345); assay type: cell-based
T2 sequence (Q9Y345 1-797): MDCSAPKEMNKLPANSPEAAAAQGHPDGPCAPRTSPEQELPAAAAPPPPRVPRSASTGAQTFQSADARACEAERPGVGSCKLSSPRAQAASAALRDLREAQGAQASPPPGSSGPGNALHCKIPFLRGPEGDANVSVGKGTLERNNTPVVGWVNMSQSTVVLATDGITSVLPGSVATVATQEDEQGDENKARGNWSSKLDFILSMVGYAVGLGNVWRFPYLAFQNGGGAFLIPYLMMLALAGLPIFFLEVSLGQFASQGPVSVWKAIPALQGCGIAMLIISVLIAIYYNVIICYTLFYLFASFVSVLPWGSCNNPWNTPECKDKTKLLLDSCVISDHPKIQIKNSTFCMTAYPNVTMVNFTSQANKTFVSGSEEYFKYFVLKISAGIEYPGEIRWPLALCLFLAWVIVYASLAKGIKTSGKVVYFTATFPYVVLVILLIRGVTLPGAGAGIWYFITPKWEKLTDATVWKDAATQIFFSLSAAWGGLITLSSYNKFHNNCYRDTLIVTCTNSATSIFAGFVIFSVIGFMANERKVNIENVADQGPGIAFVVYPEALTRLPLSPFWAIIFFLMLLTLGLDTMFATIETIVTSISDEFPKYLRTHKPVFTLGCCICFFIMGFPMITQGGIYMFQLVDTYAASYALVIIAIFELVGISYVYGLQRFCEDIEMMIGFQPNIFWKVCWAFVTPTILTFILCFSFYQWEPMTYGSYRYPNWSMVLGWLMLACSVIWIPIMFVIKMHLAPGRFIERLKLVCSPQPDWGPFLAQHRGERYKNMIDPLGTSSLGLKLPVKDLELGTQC

[7] = Stability in rat plasma; assay type: in vitro ADME
[8] = biological target: T3, human GlyT2a (Homo sapiens, UniProt Q9Y345); assay type: cell-based
T3 sequence (Q9Y345 1-797): T2 sequence (Q9Y345 1-797)

[9] = biological target: CB2 (Homo sapiens, UniProt P34972); experiment: Lipid receptor screen, agonist/antagonist
CB2, sequence (P34972 whole entry, species assumed): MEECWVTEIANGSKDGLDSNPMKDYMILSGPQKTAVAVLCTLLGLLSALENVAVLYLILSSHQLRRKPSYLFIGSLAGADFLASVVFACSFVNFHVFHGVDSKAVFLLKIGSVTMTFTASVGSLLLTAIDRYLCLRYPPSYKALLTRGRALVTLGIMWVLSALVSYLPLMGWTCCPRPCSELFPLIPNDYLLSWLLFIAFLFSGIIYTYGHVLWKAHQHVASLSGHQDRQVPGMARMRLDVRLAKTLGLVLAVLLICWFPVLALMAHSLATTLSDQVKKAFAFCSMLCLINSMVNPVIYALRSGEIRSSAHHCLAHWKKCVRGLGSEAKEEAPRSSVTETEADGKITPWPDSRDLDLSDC

[10] = biological target: CB1 (Homo sapiens, UniProt P21554); experiment: Lipid receptor screen, agonist/antagonist
CB1, sequence (P21554 whole entry, species assumed): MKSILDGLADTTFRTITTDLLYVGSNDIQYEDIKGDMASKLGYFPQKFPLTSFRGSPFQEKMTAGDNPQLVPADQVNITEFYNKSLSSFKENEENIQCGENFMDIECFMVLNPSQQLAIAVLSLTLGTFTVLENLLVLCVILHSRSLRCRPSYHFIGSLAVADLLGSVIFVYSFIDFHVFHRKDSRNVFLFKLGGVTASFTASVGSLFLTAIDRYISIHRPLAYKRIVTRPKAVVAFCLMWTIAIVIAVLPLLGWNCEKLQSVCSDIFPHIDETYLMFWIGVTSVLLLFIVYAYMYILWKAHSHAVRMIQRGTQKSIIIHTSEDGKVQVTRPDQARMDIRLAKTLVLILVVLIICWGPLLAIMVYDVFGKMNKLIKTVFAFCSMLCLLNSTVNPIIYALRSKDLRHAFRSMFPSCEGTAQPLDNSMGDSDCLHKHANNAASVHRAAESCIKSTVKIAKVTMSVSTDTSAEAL

[11] = tested on: sphingosine-1-phosphate receptor; experiment: Lipid receptor screen, agonist/antagonist
[12] = tested on: male Sprague Dawley rats; experiment: Side effects in the analgesia study; assay type: in vivo, rat; details: 30 mg/kg ip
[13] = biological target: T4, Adrenergic α2A receptor (Homo sapiens, UniProt P08913); experiment: Selectivity panel, displacement of radioactive ligand; assay type: binding; details: 10 μM
T4 sequence (P08913 1-465): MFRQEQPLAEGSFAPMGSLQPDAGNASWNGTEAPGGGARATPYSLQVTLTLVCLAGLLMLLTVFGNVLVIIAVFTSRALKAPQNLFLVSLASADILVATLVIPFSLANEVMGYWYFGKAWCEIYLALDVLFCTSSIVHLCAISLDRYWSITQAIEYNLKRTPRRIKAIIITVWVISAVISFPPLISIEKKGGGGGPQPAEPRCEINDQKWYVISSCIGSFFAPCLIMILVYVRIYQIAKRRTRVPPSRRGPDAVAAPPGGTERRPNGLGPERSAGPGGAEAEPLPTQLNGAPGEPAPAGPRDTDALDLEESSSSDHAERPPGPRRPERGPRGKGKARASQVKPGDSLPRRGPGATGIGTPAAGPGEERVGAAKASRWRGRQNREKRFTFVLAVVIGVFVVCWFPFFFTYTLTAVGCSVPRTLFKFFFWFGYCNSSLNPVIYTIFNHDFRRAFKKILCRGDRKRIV

[14] = tested on: nerve ligation rat model of neuropathic pain; assay type: in vivo; details: 30 mg/kg ip, compared to vehicle
[15] = biological target: α7 nicotinic acetylcholine receptors (Homo sapiens, UniProt P36544); experiment: Pain target screen, α7 nicotinic acetylcholine receptors
α7 nicotinic acetylcholine receptors, sequence (P36544 23-502): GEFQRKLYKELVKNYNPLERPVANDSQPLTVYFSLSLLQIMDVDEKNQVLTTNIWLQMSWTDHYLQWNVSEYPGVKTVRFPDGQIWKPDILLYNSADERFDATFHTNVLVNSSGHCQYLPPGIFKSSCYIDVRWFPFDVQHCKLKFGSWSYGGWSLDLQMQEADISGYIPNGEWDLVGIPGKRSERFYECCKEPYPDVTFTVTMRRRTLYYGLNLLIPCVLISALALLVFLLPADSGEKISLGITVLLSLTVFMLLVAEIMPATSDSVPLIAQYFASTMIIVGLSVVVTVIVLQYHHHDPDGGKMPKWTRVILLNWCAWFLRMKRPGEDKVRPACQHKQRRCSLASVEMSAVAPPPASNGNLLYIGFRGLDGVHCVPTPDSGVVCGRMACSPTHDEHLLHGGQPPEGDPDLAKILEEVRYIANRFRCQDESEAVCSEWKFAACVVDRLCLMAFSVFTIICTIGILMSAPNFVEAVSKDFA

[16] = biological target: norepinephrine transporter (Homo sapiens, UniProt P23975); experiment: Selectivity panel, displacement of radioactive ligand; assay type: binding; details: 10 μM
norepinephrine transporter, sequence (P23975 whole entry, species assumed): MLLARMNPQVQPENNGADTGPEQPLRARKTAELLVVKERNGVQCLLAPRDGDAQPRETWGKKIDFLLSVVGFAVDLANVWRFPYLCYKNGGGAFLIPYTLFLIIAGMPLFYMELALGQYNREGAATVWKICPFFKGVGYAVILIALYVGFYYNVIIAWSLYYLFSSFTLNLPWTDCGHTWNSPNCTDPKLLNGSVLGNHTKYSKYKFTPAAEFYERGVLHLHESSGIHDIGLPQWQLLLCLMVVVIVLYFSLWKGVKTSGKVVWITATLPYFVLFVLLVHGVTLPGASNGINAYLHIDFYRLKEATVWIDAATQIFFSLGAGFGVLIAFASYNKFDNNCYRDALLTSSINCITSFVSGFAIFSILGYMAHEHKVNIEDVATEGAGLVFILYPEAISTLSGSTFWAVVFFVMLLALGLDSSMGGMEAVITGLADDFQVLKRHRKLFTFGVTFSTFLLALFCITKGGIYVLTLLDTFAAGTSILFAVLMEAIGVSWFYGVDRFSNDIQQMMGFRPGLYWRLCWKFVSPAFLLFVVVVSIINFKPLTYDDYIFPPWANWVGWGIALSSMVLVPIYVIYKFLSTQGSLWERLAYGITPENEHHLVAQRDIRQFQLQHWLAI

[17] = biological target: μOR (Homo sapiens, UniProt P35372); experiment: μOR agonist/antagonist activity in AtT20 cells expressing μORs; assay type: cell-based; details: 1 μM
μOR, sequence (P35372 whole entry): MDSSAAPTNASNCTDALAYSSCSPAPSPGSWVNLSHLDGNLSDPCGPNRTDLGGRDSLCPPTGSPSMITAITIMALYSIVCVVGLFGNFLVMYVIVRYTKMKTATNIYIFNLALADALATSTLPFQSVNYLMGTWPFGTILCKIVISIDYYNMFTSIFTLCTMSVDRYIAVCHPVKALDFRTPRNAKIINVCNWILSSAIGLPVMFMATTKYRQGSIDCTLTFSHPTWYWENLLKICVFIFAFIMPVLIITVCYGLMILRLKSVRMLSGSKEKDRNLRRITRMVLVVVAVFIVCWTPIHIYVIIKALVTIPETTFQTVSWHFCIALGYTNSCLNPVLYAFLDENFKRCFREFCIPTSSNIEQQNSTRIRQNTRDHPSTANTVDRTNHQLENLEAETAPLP

[18] = tested on: Nav channels; experiment: Pain target screen, Nav channels
[19] = In vivo pharmacokinetic study, plasma and brain exposure; design: species or system rat
[20] = tested on: Cav channels; experiment: Pain target screen, Cav channels
[21] = biological target: μ opioid receptor (μOR) (Homo sapiens, UniProt P35372); experiment: Selectivity panel, displacement of radioactive ligand; assay type: binding; details: 10 μM
μ opioid receptor (μOR), sequence (P35372 whole entry, species assumed): as the sequence (P35372 whole entry) above

[22] = biological target: T2, GlyT2; experiment: Electrophysiology washout assay; assay type: cell-based; details: IC50 concentration of inhibitor, after 25 minutes wash
[23] = tested on: GlyT2; details: read-out: GlyT2 IC50; cited from earlier work
[24] = following IV administration; cited from earlier work

CCCCCCCC/C=C\CCCCCCCC(=O)NCC(=O)O [Compound 4, N-oleoyl glycine]
effect on GlyT1 ([1]; concentrations up to 10 μM): no effect

CCCCCCCC/C=C\CCCCCCCC(=O)N[C@@H](CCCCN)C(=O)O.Cl [Compound 32, (2S)-6-amino-2-[[(Z)-octadec-9-enoyl]amino]hexanoic acid.HCl]
stability in rat liver microsomes [2]: rapidly metabolised | half-life at 1000 ng/mL ([3]; human, human plasma (pooled)): > 17 h | inhibition of GlyT1 glycine currents [4]: not reduced | stability in human liver microsomes [5]: stable | half-life at 1 μM [5]: > 4.25 h | mechanism of GlyT2 inhibition [6]: non-competitive inhibitor | fold improvement of degradation half-life ([7]; rat plasma, relative to 4): ~ 3 fold

CCCCCCCC/C=C\CCCCCCCC(=O)N[C@@H](CCSC)C(=O)O [Compound 12, (2S)-4-methylsulfanyl-2-[[(Z)-octadec-9-enoyl]amino]butanoic acid]
fold improvement in GlyT2 activity ([8]; relative to 14): ~ 9 fold

CCCCCCCC/C=C\CCCCCCCC(=O)N[C@H](CCCCN)C(=O)O.Cl [Compound 33, (2R)-6-amino-2-[[(Z)-octadec-9-enoyl]amino]hexanoic acid.HCl]
activity as agonist or antagonist at CB2 [9]: no activity | activity as agonist or antagonist at CB1 [10]: no activity | stability in rat liver microsomes [2]: minimally degraded | half-life at 1 μM ([2]; rat, rat liver microsomes, pH 7.4): > 4.25 h | degradation in human plasma [3]: did not exhibit measurable degradation | inhibition of GlyT1 glycine currents [4]: little inhibition | stability in human liver microsomes [5]: stable | half-life at 1 μM [5]: > 4.25 h | activity as agonist or antagonist at sphingosine-1-phosphate receptor [11]: no activity | duration of side effects post injection [12]: up to 15 min | side effects [12]: Mild side effects | displacement of radioactive ligands [13]: greater than 50% | reversal of allodynia (analgesia) [14]: significant analgesia; also recorded: Significant reversal of allodynia | inhibition of α7 nicotinic acetylcholine receptors [15]: no significant inhibition | displacement of radioactive ligands [16]: greater than 50% | activity as a μOR agonist or antagonist [17]: no activity | inhibition of Nav channels [18]: no significant inhibition | concentration of unbound drug (Cunbound) in brain at Cmax ([19]; 27.5 mg/kg ip): approximately 90 nM | Cmax Brain ([19]; single 27.5 mg/kg ip, Sprague Dawley rats): 1854 ng/g | inhibition of Cav channels [20]: no significant inhibition | displacement of radioactive ligands [21]: greater than 50% | degradation in rat plasma [7]: did not exhibit measurable degradation | recovery of transport after washout [22]: completely restored

CCCCCCCC/C=C\CCCCCCCC(=O)N[C@@H](CCCC)C(=O)O [Compound 14, (2S)-2-[[(Z)-octadec-9-enoyl]amino]hexanoic acid]
fold less potent than 10 at GlyT2 ([8]; relative to 10): 2 fold

CCCCC/C=C\C/C=C\C/C=C\C/C=C\CCCC(=O)NCC(=O)O [Compound 5, N-arachidonyl glycine]
activity at GlyT1 [1]: little activity

COc1cc(C(=O)NCC2(N(C)C)CCCC2)cc(OC)c1OCc1ccccc1 [Compound 2, ORG25543]
animals with side effects [12]: 4 out of the 6 | duration of side effects post injection [12]: up to 60 min | side effects [12]: more severe side effects | reversal of allodynia (analgesia) [14]: Non-significant reversal of allodynia | activity at GlyT1 [1]: no appreciable activity | IC50 [23]: 16 nM

N[C@@H](COC(c1cccc(F)c1)c1ccccc1OCc1ccccc1)C(=O)O (stereo partly shown) [Compound 1, ALX1393]
ratio of unbound drug in brain and plasma (Kp,uu) [24]: 0.05 | IC50 [23]: 100 nM

CCCCCCCC/C=C\CCCCCCCC(=O)NCCCCCN.Cl [Compound 37, (Z)-N-(5-aminopentyl)octadec-9-enamide.HCl]
fold reduction of GlyT2 potency ([8]; relative to 32): ~ 22 fold

Source: paper PMC6420064 (Journal of medicinal chemistry, 2019)
